# In patent US9745305B2, “Modulators of methyl modifying enzymes, compositions and uses thereof” (Constellation Pharmaceuticals, Inc., priority 2013, dated 2017):
# Experiments:
# [1] = molecular target: EZH2 (Homo sapiens, UniProt Q15910); assay: EZH2 Assay (3H SAM methyl transfer, rPRC2, FlashPlate); assay type: biochemical; conditions: rPRC2, biotinylated oligonucleosomes, 0.2 μM 3H SAM, 2 nM EZH2
# Description: (§1) EZH2 Assay: Assays were carried out by mixing rPRC2 together with biotinylated oligonucleosome substrates in the presence of the radio-labeled enzyme co-factor, S-adenosyl-L-methionine (^3H SAM) (Perkin Elmer) and monitoring the enzymatically mediated transfer of tritiated methyl groups from ^3H SAM to histone lysine residues. The amount of resulting tritiated methyl histone product was measured by first capturing the biotinylated oligonucleosomes in streptavidin (SAV) coated FlashPlates (Perkin Elmer), followed by a wash step to remove unreacted ^3H SAM, and then counting on a TopCount NXT 384 well plate scintillation counter (Perkin Elmer). The final assay conditions for EZH2 were as follows: 50 mM Tris Buffer pH 8.5, 1 mM DTT, 69 μM Brij-35 detergent, 5.0 mM MgCl2, 0.1 mg/mL BSA, 0.2 μM ^3H SAM, 0.2 μM biotinylated oligonucleosomes, 3.6 μM H3K27me3 peptide and 2 nM EZH2.
# (§2) Compound IC50 measurements were obtained as follows: Compounds were first dissolved in 100% DMSO as 10 mM stock solutions. Ten point dose response curves were generated by dispensing varying amounts of the 10 mM compound solution in 10 wells of the 384 well plate (Echo; Labcyte), pure DMSO was then used to backfill the wells to insure all wells have the same amount of DMSO. A 12.5 μL volume of the HMT enzyme, H3K27me3 peptide and oligonucleosome substrate in assay buffer was added to each well of the assay plate using a Multidrop Combi (ThermoFisher). Compounds were pre-incubated with the enzyme for 20 min, followed by initiation of the methyltransferase reaction by addition of 12.5 μL of ^3H SAM in assay buffer (final volume=25 μL). The final concentrations of compounds ranged from a top default concentration of 80 μM down to 0.16 μM in ten 2-fold dilution steps. Reactions were carried out for 60 minutes and quenched with 20 μL per well of 1.96 mM SAH, 50 mM Tris pH 8.5, 200 mM EDTA. Stopped reactions were transferred to SAV coated Flashplates (Perkin Elmer), incubated for 120 min, washed with a plate washer, and then read on the TopCount NXT (1.0 min/well) to measure the amount of methyl histone product formed during the reaction. The amount of methyl histone product was compared with the amount of product formed in the 0% and 100% inhibition control wells allowing the calculation of % Inhibition in the presence of the individual compounds at various concentrations. IC50's were computed using a 4 parameter fit non-linear curve fitting software package (XLFIT, part of the database package, ActivityBase (IDBS)) where the four parameters were IC50, Hill slope, pre-transitional baseline (0% INH), and post-transitional baseline (100% INH); with the latter two parameters being fixed to zero and 100%, respectively, by default.
# [2] = molecular target: Y641N EZH2 (Homo sapiens, UniProt Q15910, Y641N); assay: Assay for Y641N EZH2 (as the EZH2 assay, H3K27Me2 oligonucleosomes as substrate); assay type: biochemical; conditions: Y641N EZH2 mutant, reconstituted H3K27Me2 oligonucleosomes as substrate
# Sequence of Y641N EZH2 (Q15910 whole entry Y641N): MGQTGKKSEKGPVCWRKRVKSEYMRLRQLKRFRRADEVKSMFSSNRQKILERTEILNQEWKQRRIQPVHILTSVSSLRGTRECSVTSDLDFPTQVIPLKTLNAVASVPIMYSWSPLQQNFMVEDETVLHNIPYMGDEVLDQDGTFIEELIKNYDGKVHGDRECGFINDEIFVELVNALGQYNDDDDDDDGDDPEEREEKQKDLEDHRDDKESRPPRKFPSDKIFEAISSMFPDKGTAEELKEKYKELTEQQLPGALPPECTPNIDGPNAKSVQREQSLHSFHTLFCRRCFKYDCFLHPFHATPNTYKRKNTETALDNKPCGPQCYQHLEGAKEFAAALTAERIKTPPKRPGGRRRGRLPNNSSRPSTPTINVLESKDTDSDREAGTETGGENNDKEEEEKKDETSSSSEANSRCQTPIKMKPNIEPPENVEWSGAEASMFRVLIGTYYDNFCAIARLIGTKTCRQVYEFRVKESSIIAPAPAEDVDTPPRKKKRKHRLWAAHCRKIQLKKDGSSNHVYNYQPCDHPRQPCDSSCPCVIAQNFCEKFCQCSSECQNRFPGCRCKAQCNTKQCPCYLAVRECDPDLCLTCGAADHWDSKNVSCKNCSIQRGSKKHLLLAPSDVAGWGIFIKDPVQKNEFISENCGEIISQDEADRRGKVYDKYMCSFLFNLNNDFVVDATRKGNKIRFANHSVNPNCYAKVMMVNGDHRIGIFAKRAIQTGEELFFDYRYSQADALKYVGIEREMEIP
# Sequence of Y641N EZH2 (O75530 whole entry partner): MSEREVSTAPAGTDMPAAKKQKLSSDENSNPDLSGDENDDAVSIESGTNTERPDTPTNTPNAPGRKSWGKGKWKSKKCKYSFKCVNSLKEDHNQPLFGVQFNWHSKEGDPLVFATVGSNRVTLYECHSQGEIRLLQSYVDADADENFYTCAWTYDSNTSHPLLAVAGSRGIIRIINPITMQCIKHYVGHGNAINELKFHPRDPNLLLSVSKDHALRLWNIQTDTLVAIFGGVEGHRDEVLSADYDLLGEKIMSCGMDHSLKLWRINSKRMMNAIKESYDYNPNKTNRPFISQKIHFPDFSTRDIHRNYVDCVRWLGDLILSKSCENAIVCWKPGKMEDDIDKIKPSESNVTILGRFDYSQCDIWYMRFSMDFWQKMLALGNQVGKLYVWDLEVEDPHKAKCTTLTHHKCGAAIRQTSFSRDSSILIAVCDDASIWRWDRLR
# Sequence of Y641N EZH2 (Q15022 whole entry partner): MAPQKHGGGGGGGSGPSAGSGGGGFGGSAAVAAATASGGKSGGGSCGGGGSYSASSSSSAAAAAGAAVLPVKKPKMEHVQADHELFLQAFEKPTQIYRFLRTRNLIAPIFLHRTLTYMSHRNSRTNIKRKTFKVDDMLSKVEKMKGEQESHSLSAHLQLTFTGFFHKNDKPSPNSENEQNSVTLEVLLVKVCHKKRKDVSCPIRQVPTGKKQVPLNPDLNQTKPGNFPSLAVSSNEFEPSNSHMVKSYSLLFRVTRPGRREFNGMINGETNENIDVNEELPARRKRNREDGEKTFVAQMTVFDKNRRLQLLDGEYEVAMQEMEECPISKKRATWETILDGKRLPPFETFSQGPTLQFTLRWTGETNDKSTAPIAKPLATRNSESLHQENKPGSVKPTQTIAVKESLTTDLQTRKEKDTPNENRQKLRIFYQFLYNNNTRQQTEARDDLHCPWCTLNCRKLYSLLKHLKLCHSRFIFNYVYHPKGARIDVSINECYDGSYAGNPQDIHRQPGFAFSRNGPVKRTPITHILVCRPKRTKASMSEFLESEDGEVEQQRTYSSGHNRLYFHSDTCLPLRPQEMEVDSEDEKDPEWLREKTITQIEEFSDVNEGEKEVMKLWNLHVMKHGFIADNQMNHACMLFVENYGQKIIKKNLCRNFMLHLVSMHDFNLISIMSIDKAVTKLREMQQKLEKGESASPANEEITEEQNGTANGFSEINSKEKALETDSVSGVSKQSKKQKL
# Description: as §1, §2
# Assay for Y641N EZH2 was performed as above using reconstituted H3K27Me2 oligonucleosomes as substrate.
# [3] = system: H3K27me3 mark in Hela cells expressing wild type EZH2; assay: H3K27me3 Alpha Hela Assay (AlphaLISA); assay type: cell-based; conditions: Homo sapiens, 72 hrs, read-out: H3K27me3_Alpha_HeLa (EC50)
# Description: H3K27me3 Alpha Hela Assay (AlphaLISA). Ten different doses of each test compound (in a series of 3-fold dilutions) were plated in duplicate 384-well tissue culture treated plates (Catalog #781080; Greiner Bio One; Monroe, N.C.). Hela cells grown in culture were trypsinized and counted using a Countess® cell counter (Catalog # C10281; Life Technologies, Grand Island, N.Y.). Cell were diluted to 67,000 cells per mL in 10% DMEM (Catalog #10569-010 Life Technologies, Grand Island, N.Y.) and 15 μL (1,000 cells) were plated into each well using the Biotek MicroFlo™ Select Dispenser (BioTek Instruments, Inc. Vermont, USA),) of the 384-well plate. Plates were incubated at 37° C./5% CO2 for 72 hrs. One of the duplicate plates was processed for HeLa assay and the other for viability.
# To the plate processed for AlphaLISA was added 5 μL per well Cell-Histone Lysis buffer (1×) (Catalog # AL009F1 Perkin Elmer; Waltham, Mass.) and the plate was incubated at RT for 30 minutes on a plate shaker with low speed (Model#4625-Q Thermo Scientific; Waltham, Mass.). Then, 10 μL per well Histone Extraction buffer (catalog # AL009F2; Perkin Elmer; Waltham, Mass.) was added and the plate further incubated at RT for 20 min on plate shaker with low speed. To each well was then added 10 μL per well of a 5× mix of anti-K27me3 acceptor beads plus Biotinylated anti-Histone H3 (C-ter) Antibody (diluted to 3 nM final) (Catalog #AL118 Perkin Elmer; Waltham, Mass.). Dilution of the acceptor beads and then anti-Histone H3 was with 1× Histone Detection buffer (Catalog # AL009F3 Perkin Elmer; Waltham, Mass.) which was produced diluted from the 10× stock provided. The plate was sealed with an aluminum plate sealer and incubated at 23° C. for 60 min. We then added 10 μL 5× solution of Streptavidin Donor beads (Catalog #6760002 Perkin Elmer; Waltham, Mass.) (20 μg/mL final in 1× Histone Detection Buffer), sealed the plate with Aluminum plate sealer and incubated at 23° C. for 30 min. The plates were then read using an EnVision-Alpha Reader (model #2104 Perkin Elmer; Waltham, Mass.).
# Data from both assays was analyzed using Assay Assistant (Constellation Pharmaceuticals In-house product) and Activity Base (IDBS Ltd, Surrey, UK) template. Data files were imported to Assay Assistant and assay conditions were specified. A unique Analysis ID was created and the data files exported to Activity Base. An analysis template was created on Activity Base to measure dose-dependent inhibition of H3K27me3 mark and cell viability respectively. Readout of DMSO wells were used to normalize the data. Resulting curves were fitted using Activity base software Model 205 (IDBS Ltd, Surrey, UK). The data was checked for quality, validated and integrated in excel format using SARview (IDBS Ltd, Surrey, UK).
# Sequence of EZH2 (Q15910 whole entry): as the sequence (Q15910 whole entry Y641N) above, with N641Y counted along it
# Sequence of EZH2 (O75530 whole entry partner): as the sequence (O75530 whole entry partner) above
# Sequence of EZH2 (Q15022 whole entry partner): as the sequence (Q15022 whole entry partner) above
Structure (SMILES),IC50 [1] [nM],IC50 [2] [nM],EZH2 IC50 [1],Y641N EZH2 IC50 [2],EC50 [3] [nM]
"COc1cc(C)[nH]c(=O)c1CNC(=O)c1c(C)c(C(C)N(C)C(C)=O)n2ncccc12 (racemic) [Compound 104, (±)-N-((4-methoxy-6-methyl-2-oxo-1,2-dihydropyridin-3-yl)methyl)-6-methyl-7-(1-(N-methylacetamido)ethyl)pyrrolo[1,2-b]pyridazine-5-carboxamide]",< 100,100 to 1000,,,
"COc1cc(C)[nH]c(=O)c1CNC(=O)c1c(C)c(C(C)c2cccn(C)c2=O)n2ncccc12 (racemic) [Compound 111, (±)-N-((4-methoxy-6-methyl-2-oxo-1,2-dihydropyridin-3-yl)methyl)-6-methyl-7-(1-(1-methyl-2-oxo-1,2-dihydropyridin-3-yl)ethyl)pyrrolo[1,2-b]pyridazine-5-carboxamide]",,1000 to 10000,*(0.25 μM),,
"CCS(=O)(=O)N1CCC(C(C)c2c(C)c(C(=O)NCc3c(OC)cc(C)[nH]c3=O)n3ccncc23)CC1 (racemic) [Compound 117, (±)-8-(1-(1-(ethylsulfonyl)piperidin-4-yl)ethyl)-N-((4-methoxy-6-methyl-2-oxo-1,2-dihydropyridin-3-yl)methyl)-7-methylpyrrolo[1,2-a]pyrazine-6-carboxamide]",< 100,< 100,,,
"CCS(=O)(=O)N1CCC(C(C)c2c(C)c(C(=O)NCc3c(OC)cc(C)[nH]c3=O)c3cnccn23)CC1 (racemic) [Compound 119, (±)-6-(1-(1-(ethylsulfonyl)piperidin-4-yl)ethyl)-N-((4-methoxy-6-methyl-2-oxo-1,2-dihydropyridin-3-yl)methyl)-7-methylpyrrolo[1,2-a]pyrazine-8-carboxamide]",< 100,< 100,,,
"Cc1cc(C)c(CNC(=O)c2c(C)c(C(C)C3CCN(C)CC3)n3ncccc23)c(=O)[nH]1 (racemic) [Compound 124, (±)-N-((4,6-dimethyl-2-oxo-1,2-dihydropyridin-3-yl)methyl)-6-methyl-7-(1-(1-methylpiperidin-4-yl)ethyl)pyrrolo[1,2-b]pyridazine-5-carboxamide]",< 100,100 to 1000,,,
"COc1cc(C)[nH]c(=O)c1CNC(=O)c1c(C)c(C(C)=O)n2ncccc12 [Compound 100, 7-acetyl-N-((4-methoxy-6-methyl-2-oxo-1,2-dihydropyridin-3-yl)methyl)-6-methylpyrrolo[1,2-b]pyridazine-5-carboxamide]",1000 to 10000,> 10000,,,
"COc1cc(C)[nH]c(=O)c1CNC(=O)c1c(C)c(-c2ccnn2C)n2ncccc12 [Compound 109, N-((4-methoxy-6-methyl-2-oxo-1,2-dihydropyridin-3-yl)methyl)-6-methyl-7-(1-methyl-1H-pyrazol-5-yl)pyrrolo[1,2-b]pyridazine-5-carboxamide]",100 to 1000,100 to 1000,,,
"Cc1cc(C)c(CNC(=O)c2c(C)c(-c3c(C)noc3C)n3ncccc23)c(=O)[nH]1 [Compound 118, N-((4,6-dimethyl-2-oxo-1,2-dihydropyridin-3-yl)methyl)-7-(3,5-dimethylisoxazol-4-yl)-6-methylpyrrolo[1,2-b]pyridazine-5-carboxamide]",< 100,< 100,,,
"COc1cc(C)[nH]c(=O)c1CNC(=O)c1c(C)c(-c2c(C)cnn2C)n2ncccc12 [Compound 120, 7-(1,4-dimethyl-1H-pyrazol-5-yl)-N-((4-methoxy-6-methyl-2-oxo-1,2-dihydropyridin-3-yl)methyl)-6-methylpyrrolo[1,2-b]pyridazine-5-carboxamide]",100 to 1000,100 to 1000,,,
"CCCc1cc(C)[nH]c(=O)c1CNC(=O)c1c(C)c(-c2c(C)noc2C)n2ncccc12 [Compound 123, 7-(3,5-dimethylisoxazol-4-yl)-6-methyl-N-((6-methyl-2-oxo-4-propyl-1,2-dihydropyridin-3-yl)methyl)pyrrolo[1,2-b]pyridazine-5-carboxamide]",< 100,,,*(0.5 μM),
"Cc1cc(C)c(CNC(=O)c2c(C)c(C(=O)N3CCOCC3)n3ncccc23)c(=O)[nH]1 [Compound 125, N-((4,6-dimethyl-2-oxo-1,2-dihydropyridin-3-yl)methyl)-6-methyl-7-(morpholine-4-carbonyl)pyrrolo[1,2-b]pyridazine-5-carboxamide]",100 to 1000,,,,
"Cc1cc(C)c(CNC(=O)c2c(C)c(C(=O)N3CCN(S(C)(=O)=O)CC3)n3ncccc23)c(=O)[nH]1 [Compound 126, N-((4,6-dimethyl-2-oxo-1,2-dihydropyridin-3-yl)methyl)-6-methyl-7-(4-(methylsulfonyl)piperazine-1-carbonyl)pyrrolo[1,2-b]pyridazine-5-carboxamide]",1000 to 10000,,,,
"COc1ccc2c(C(=O)NCc3c(C)cc(C)[nH]c3=O)c(C)c(C(C)C3CCN(CC(C)(C)O)CC3)n2n1 (stereo not drawn) [Compound 127, N-((4,6-dimethyl-2-oxo-1,2-dihydropyridin-3-yl)methyl)-7-(1-(1-(2-hydroxy-2-methylpropyl)piperidin-4-yl)ethyl)-2-methoxy-6-methylpyrrolo[1,2-b]pyridazine-5-carboxamide]",< 100,,,,2000 to 10000
"Cc1cc(C)c(CNC(=O)c2c(C)c(C(C)C3CCN(CC(C)(C)O)CC3)n3ncccc23)c(=O)[nH]1 (stereo not drawn) [Compound 128, N-((4,6-dimethyl-2-oxo-1,2-dihydropyridin-3-yl)methyl)-7-(1-(1-(2-hydroxy-2-methylpropyl)piperidin-4-yl)ethyl)-6-methylpyrrolo[1,2-b]pyridazine-5-carboxamide]",< 100,,,,< 400
"CCN(C)C(C)c1c(C)c(C(=O)NCc2c(OC)cc(C)[nH]c2=O)c2cccnn12 (stereo not drawn) [Compound 131, 7-(1-(ethyl(methyl)amino)ethyl)-N-((4-methoxy-6-methyl-2-oxo-1,2-dihydropyridin-3-yl)methyl)-6-methylpyrrolo[1,2-b]pyridazine-5-carboxamide]",100 to 1000,,,,
